Data set [1] concerns T. gondii Me49 strain. Description: Established chronic Me49 infection of Balb/C mice, brain cysts. Type of data set: in vivo, Toxoplasma gondii. As to conditions: treatment begun day 30 after infection, IP daily for 14 days. The procedure: In separate experiments, Balb/C mice were infected IP with 20 × 10^3 T. gondii Me49 strain tachyzoites. In these separate studies of mice with established chronic infection, after 30 days, IP treatment with JAG21 was begun each day for 14 days. JAG21 was dissolved in DMSO and administered IP in a total volume of 0.05 mL. In experiments when tafenoquine was administered alone or with JAG21 in some groups 3 mg/kg tafenoquine was administered once on day−1 from when JAG21 treatment was initiated. Cysts in brain were quantitated on day […], 16 days after discontinuing JAG21. Immunoperoxidase staining was performed. Parasite burden was quantitated in two ways. The first was using a positive pixel count algorithm of Aperio ImageScope software. Positive pixels were normalized to tissue area (mm^2). Briefly, automated quantitation was done by counting positive pixels per square area. The entire brain in one section was scanned for each mouse. The Cyst burden was quantitated as units of positive pixels per mm^2. The average ± S.E.M. numbers of mm^2 per slide quantitated was 30.2±1.6 square mm per mouse for this quantification. Each highpower field of view shown in Figure 5C is ~0.02 mm^2 per field of view. Cysts on each slide for each condition in two biological replicate experiments were also quantitated by 2 separate observers independently and results compared with automated counting, separately.

In data set [2] the test system is T. gondii RPS13Δ. Description: RPS13Δ infection of interferon γ receptor knockout mice. Type of data set: in vivo, Toxoplasma gondii. The following applies: mice to start 5 (Tafenoquine), 5 (JAG21). The procedure:
In pilot studies, herein, interferon γ receptor knockout mice that were not treated were observed following infection. At 7 and at 14 days following infection, spleen, and liver were removed and immune peroxidase stained. At 14 days a group of mice were treated with anhydrotetracycline and when a subset of these mice died, their spleen and liver were removed and immune peroxidase stained.
As in the pilot studies, this RPS13 Δ parasite also was used to infect interferon γ receptor knockout mice in a treatment study. In this separate study, groups of mice were infected with RPS13 Δ. They were treated with tafenoquine on day−1, or JAG21 for 14 days 2 h after infection, or the two together with tafenoquine on day−1 and JAG21 for the first 14 days, or with diluent only for 14 days, as described above. For the initial 14 days, no tetracycline was administered. After that time tetracycline was administered. Mice were observed each day. At the time they appeared to have substantial illness or at the termination of the experiment they were euthanized, tissues fixed in formalin and stained with hematoxylin and eosin or immunoperoxidase stained and parasite burden was assessed.

In data set [3] the target is T1, P. falciparum bc1 complex cytochrome c reductase (Pfbc1) (Plasmodium falciparum, UniProt Q02768).
T1 construct: Parasite extract was then prepared by disruption with a sonicating probe; endogenous in cells; host or cells: P. falciparum strain 3D7 blood-stage culture, sonicated parasite extract
T1 sequence (Q02768 1-376): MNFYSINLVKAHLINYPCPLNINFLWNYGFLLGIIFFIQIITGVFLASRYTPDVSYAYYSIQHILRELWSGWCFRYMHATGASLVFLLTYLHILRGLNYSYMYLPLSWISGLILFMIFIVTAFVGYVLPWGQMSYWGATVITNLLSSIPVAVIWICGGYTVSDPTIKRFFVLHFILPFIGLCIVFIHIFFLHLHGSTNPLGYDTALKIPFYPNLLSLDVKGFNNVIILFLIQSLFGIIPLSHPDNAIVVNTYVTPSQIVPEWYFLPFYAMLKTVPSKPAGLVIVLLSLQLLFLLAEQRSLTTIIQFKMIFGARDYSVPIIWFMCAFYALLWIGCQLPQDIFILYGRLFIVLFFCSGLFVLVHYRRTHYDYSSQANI
The experiment in a line: Pfbc1 native assay (cytochrome c reduction by parasite extract). Type of data set: biochemical. The following applies: atovaquone 1 μM positive control, X ± S.D., N = 4. On the procedure:
P. falciparum 3D7 strain were obtained from the Liverpool School of Tropical Medicine. Protease cocktail inhibitor was obtained from Roche. Bradford protein assay dye reagent was obtained from Bio-Rad. All other reagents were obtained from Sigma-Aldrich. Decylubiquinol was produced as per Fisher et al. ([2009]). In brief, 25 mg of decylubiquinone were dissolved in 400 μL of nitrogen-saturated hexane. An equal volume of aqueous 1 M sodium dithionite was added, and the mixture vortexed until colorless. The organic phase containing the decylubiquinol was collected, the solvent was evaporated under N2 and the decylubiquinol finally dissolved in 100 μL of 96% ethanol (acidified with 10 mM HCl). Concentrations of decylubiquinol was determined spectrophotometrically on a Cary 300 Bio UV/visible spectrophotometer (Varian, UK) from absolute spectra, using ε288−−320 = 8.1 mM^−1.cm^−1. Decylubiquinol was stored at −80°C and used within 2 weeks. […]
The protocol for the preparation of parasite extract was adapted from Fisher et al. ([2009]). […] The protein concentration of the parasite extract was determined by Bradford protein assay (Bio-Rad).
P. falciparum bc1 complex cytochrome c reductase (Pfbc1) activity was measured by monitoring cytochrome c reduction at 550 vs. 542 nm using a Cary 300 Bio UV-Visible Spectrophotometer (Varian, UK), using a protocol adapted from Fisher et al. ([2009]). […]

Data set [4] can be described thus: Caco-2 permeability assay. Type of data set: in vitro ADME. The following applies: human, A-B, read-out: Caco-2 permeability PappA-B. Background: Caco-2 monolayers are a common model of the intestinal barrier.
Data set [5] addresses CYP450 2C9 (Homo sapiens, UniProt P11712). The experiment in a line: CYP450 inhibition, 2C9. Type of data set: in vitro ADME.

A word on the inhibition: it is the change of the read-out against control, counted positive when it falls. Lower therefore signals little suppression. As a reminder, the IC50 is the point on the concentration scale where inhibition reaches its midpoint. Low values mean greater potency in that assay, high ones weaker potency in that assay.

SMILES strings stand for the structures. “Also recorded” adds a separate entry of the source. Where only a bound is given, the exact number is not on record here.

Chain of CYP450 2C9 (P11712 whole entry): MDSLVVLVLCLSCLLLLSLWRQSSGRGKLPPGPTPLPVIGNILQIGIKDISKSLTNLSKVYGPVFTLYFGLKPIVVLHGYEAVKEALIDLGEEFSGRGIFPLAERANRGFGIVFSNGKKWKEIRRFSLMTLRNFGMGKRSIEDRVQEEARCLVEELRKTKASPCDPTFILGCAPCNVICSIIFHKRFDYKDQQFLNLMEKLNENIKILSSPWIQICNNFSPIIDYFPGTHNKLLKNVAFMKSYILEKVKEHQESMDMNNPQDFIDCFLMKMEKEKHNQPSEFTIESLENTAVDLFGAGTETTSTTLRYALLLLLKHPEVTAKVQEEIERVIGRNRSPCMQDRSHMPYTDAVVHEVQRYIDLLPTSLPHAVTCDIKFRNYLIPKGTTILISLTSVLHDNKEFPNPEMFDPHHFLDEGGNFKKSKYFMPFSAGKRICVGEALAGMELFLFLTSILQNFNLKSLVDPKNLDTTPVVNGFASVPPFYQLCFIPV

For the compound `Cc1[nH]c2c(c(=O)c1-c1ccc(Oc3ccc(OC(F)(F)F)cc3)cc1)CCCC2` [JAG21, 2-Methyl-3-(4-(4-(Trifluoromethoxy)Phenoxy)Phenyl)-5,6,7,8-Tetrahydroquinolin-4-One], the Me49 brain cysts result in data set [1] is given as “marked, statistically significant reduction; also recorded: markedly reduce”. In addition, in data set [2] (Experiment 1, 6 (Tafenoquine+JAG21)), the “number of mice left at 42” value worked out at 2. The “number of mice left at 37” value in data set [2] (Experiment 2, 9 (Tafenoquine+JAG21)) is 3. In addition, in data set [3], the inhibition at 1 µM came out at 86.4 ± 3.2%. Besides, in data set [4], the Papp is over 10 ×10⁻⁶ cm/s. The same compound had an IC50 in data set [5] of 4 µM.

The values above are taken from PMC7311950, “Potent Tetrahydroquinolone Eliminates Apicomplexan Parasites” (Frontiers in Cellular and Infection Microbiology, 2020).
